Numbered stars: 1 amine (or outer) side, 2 acyl side, 3 side chain; on linkers, the order of the positions; unused ones are H or OH. Bridge positions count the residues as written; N and C are the ends. Square brackets hold non-standard residues; d marks the D form. Ends that are not written are not given here. Peptide text beside a SMILES is read from it. N(6-aminohexyl)Gly = O=C(CN(CCCCCCN[*:3])[*:1])[*:2]; CO = O=C([*:1])[*:2]; Nlys = NCCCCNCC(=O)O

In one data set the test system is THP-1 macrophages. It counts as cell-based, human. An excerpt: MyD88 function depends on dimerization through the TIR domain[37]. The RDVLPGT peptide corresponds to the region between the βB strand and the αB helix[18] […] We screened a library of backbone cyclized peptides to identify a metabolically stable derivative of the BB loop peptide that retains the binding and functional properties of the parent peptide. The library was designed using two non-natural building blocks as previously reported. The method, called cycloscan, is based on the concept of screening focused backbone cyclic libraries with spatial diversity that maintain the original side chains of the active region in the protein (RDVLPGT), Backbone cyclization combines N-alkylation with cyclization. In the case of the MyD88 BB-loop decoy peptide RDVLPGT, the tertiary amide bond preceding proline served as one of the anchor sites and was therefore replaced by an N-Alkylated glycine building unit (AGBU) to allow backbone cyclization to the second AGBU at the N-terminus (Fig. 1). Tryptophan was added to the N-terminal AGBU for quantification purposes (Fig. 1). Following the above procedure 16 backbone cyclic peptides were prepared with various ring size and position of the urea bridge in the ring (Table S1). To screen the library, human THP-1 macrophages were pre-treated with the cyclic peptides and then stimulated with Pam3CSK4, a synthetic TLR2/1 lipopeptide agonist.

Data set [1] can be described thus: Peptide stability in brush border membrane vesicles (BBMVs). The following applies: rat intestinal BBMVs in MES buffer 50 mM pH 7.4, 37 °C, HPLC-MS, triplicate. It counts as in vitro ADME. Here is the method:
The linear peptide and c(MyD 4-4) (10 µg/ml) were mixed with fresh plasma from male Wistar rats (Harlan, Israel) and incubated at 37 °C for 240 min. Triplicate samples were taken at time 0 and after 5, 30, 60, 120, 180 and 240 min. Rat brush border membrane vesicles (BBMV) were prepared by Ca^2+ precipitation from the combined duodenum, jejunum, and upper ileum of male rats as described[41],[42]. Briefly, intestines were washed with ice cold saline and separated from mucus. The intestinal mucosa was separated from the luminal surface and placed immediately into buffer containing […] KCl and 10 mM Tris–HCl (pH 7.5, 4 °C). The samples were then homogenated (Polytron PT 1200, Kinematica AG, Switzerland) and 10 mM CaCl2 was added. The homogenate was placed on a shaker for 30 min at 4 °C and then centrifuged 10,000 g for 10 min. The supernatant was separated and centrifuged at 48,000 g for 30 min and an additional two purification steps were undertaken by suspending the pellet in 300 mM mannitol and 10 mM Hepes/Tris (pH 7.5) and centrifuging at 24,000 g/h. […]
To determine the concentration of the compounds, experimental samples were diluted 1:1 with ice-cold acetonitrile and centrifuged (11000 RPM, 10 min). […] The amount of the compounds was determined using high performance liquid chromatography mass spectrometry (HPLC-MS) Waters 2695 Separation Module, equipped with Micromass ZQ detector. […]

A short description of data set [2]: Peptide stability in rat plasma. The class given is in vitro ADME. The following applies: fresh plasma of male Wistar rats, 37 °C, HPLC-MS, triplicate; for stability in plasma: 10 µg/ml, up to 240 min. Here is the method: The linear peptide and c(MyD 4-4) (10 µg/ml) were mixed with fresh plasma from male Wistar rats (Harlan, Israel) and incubated at 37 °C for 240 min. Triplicate samples were taken at time 0 and after 5, 30, 60, 120, 180 and 240 min. Rat brush border membrane vesicles (BBMV) were prepared by Ca^2+ precipitation from the combined duodenum, jejunum, and upper ileum of male rats as described[41],[42]. Briefly, intestines were washed with ice cold saline and separated from mucus. The intestinal mucosa was separated from the luminal surface and placed immediately into buffer containing […] KCl and 10 mM Tris–HCl (pH 7.5, 4 °C). The samples were then homogenated (Polytron PT 1200, Kinematica AG, Switzerland) and 10 mM CaCl2 was added. The homogenate was placed on a shaker for 30 min at 4 °C and then centrifuged 10,000 g for 10 min. The supernatant was separated and centrifuged at 48,000 g for 30 min and an additional two purification steps were undertaken by suspending the pellet in 300 mM mannitol and 10 mM Hepes/Tris (pH 7.5) and centrifuging at 24,000 g/h. The quality of the BBMV purification was tested using the brush border membrane enzyme markers gamma-glutamyl transpeptidase (GGT), leucine amino peptidase (LAP) and alkaline phosphatase (Sigma-Aldrich, St Louis, MO). Peptides were mixed with purified BBMVs in MES buffer (2-(N-morpholino)ethanesulfonic acid, 50 mM pH 7.4) and incubated at 37 °C for 120 min. Triplicate samples were taken at time 0 and after 15, 30, 45, 60, 90, and 120 min.
To determine the concentration of the compounds, experimental samples were diluted 1:1 with ice-cold acetonitrile and centrifuged (11000 RPM, 10 min). The supernatant was separated and evaporated (Vacuum Evaporation System, Labconco, Kansas City, MO). Samples were reconstituted with acetonitrile: water 70:30 and then centrifuged (11000 RPM, 10 min). The amount of the compounds was determined using high performance liquid chromatography mass spectrometry (HPLC-MS) Waters 2695 Separation Module, equipped with Micromass ZQ detector. The resulting solution (100 μl) was injected into the HPLC system. […]

For data set [3], the system named is THP-1 cells, TLR2 ligand Pam3CSK4. Put plainly: hTNFα production by THP-1 macrophages stimulated with Pam3CSK4 (TLR2). It counts as cell-based, human. The conditions noted are these: THP-1, inhibitors 3 hr before Pam3CSK4, 24 h, ELISA. Here is the method:
MyD88 function depends on dimerization through the TIR domain[37]. The RDVLPGT peptide corresponds to the region between the βB strand and the αB helix[18] […] We screened a library of backbone cyclized peptides to identify a metabolically stable derivative of the BB loop peptide that retains the binding and functional properties of the parent peptide. The library was designed using two non-natural building blocks as previously reported. […] Tryptophan was added to the N-terminal AGBU for quantification purposes (Fig. 1). […]
Figure 3 c(MyD 4-4) blocks TLR-mediated macrophage activation. (A) THP-1 cells were treated with inhibitors for 3 hr prior to activation with the TLR2 ligand Pam3CSK4 200 pg/ml for 24 h. hTNFα levels were determined by ELISA. […] (B,C) Luminescence levels from the NFκB-luc murine RAW264.7 cells. […] NFκB-luc RAW264.7 cells were treated with inhibitors for 24 hr and then cells were stimulated with Pam3CSK4 (10 ng/ml) (C) or LPS (50 ng/ml) (D) for 4 hr and luminescence levels were determined. […] Human (h) TNFα levels were determined by ELISA at 24 hr. (F,G) NFκB-luc RAW264.7 cells were treated with the indicated compounds for 24 hr and then stimulated with Pam3CSK4 (F) or LPS (G) for 4 hr after which luminescence was determined. […]
(§1) Cytokines were determined using human/mouse OptEIA sets (BD Biosciences, CA, USA) according to the manufacturer’s instructions.
Background: In an ELISA, binding on a coated surface is turned into a signal by an enzyme label.

For data set [4], the system named is THP-1 cells, TLR4 ligand LPS. Description: hTNFα production by THP-1 macrophages stimulated with LPS (TLR4). It counts as cell-based, human. The conditions noted are these: THP-1, compound 3 hr before LPS, 24 hr, ELISA. The method, then:
Figure 3 c(MyD 4-4) blocks TLR-mediated macrophage activation. (A) THP-1 cells were treated with inhibitors for 3 hr prior to activation with the TLR2 ligand Pam3CSK4 200 pg/ml for 24 h. hTNFα levels were determined by ELISA. One representative experiment of three independent experiments is shown. Asterisks represent the significance between treated cells and untreated Pam3CSK4-stimulated control. Asterisks above a cross bar represent the comparison between treatment with c(MyD 4-4) and treatment with MyDI. (B,C) Luminescence levels from the NFκB-luc murine RAW264.7 cells. The different conditions were set according to preliminary assays of each cell line. NFκB-luc RAW264.7 cells were treated with inhibitors for 24 hr and then cells were stimulated with Pam3CSK4 (10 ng/ml) (C) or LPS (50 ng/ml) (D) for 4 hr and luminescence levels were determined. One representative experiment of three independent experiments is shown. […] Human (h) TNFα levels were determined by ELISA at 24 hr. (F,G) NFκB-luc RAW264.7 cells were treated with the indicated compounds for 24 hr and then stimulated with Pam3CSK4 (F) or LPS (G) for 4 hr after which luminescence was determined. […]
as §1

The test system of another data set is RAW264.7 NFκB-luc cells. Put plainly: Viability of NFκB-luc RAW264.7 cells. The class given is cell-based, mouse. The following applies: 24 hr treatment.
Data set [5] addresses T1, recombinant fusion protein SUMO-MyD88-TIR (human MyD88 TIR domain, aa 150-296, fused to SUMO) (human, UniProt Q99836 150-296).
T1 construct: MyD88, human, TIR domain residues 150-296; Cloned with BamH/XhoI into the pETM-11 SUMO3GFP fusion vector; also called recombinant MyD88 TIR domain; Recombinant MyD88 TIR protein; source: E. coli BL21 C43 (DE3), purified (HIS-select Nickel Magnetic agarose beads, eluted with 300 mM imidazole)
Put plainly: ELISA; competitive binding: SUMO-MyD88-TIR (8 µg/ml) attached to polystyrene plates at 4 °C overnight, blocked with 1% BSA in PBS; 125 µM Biotin-MyDI together with 10, 1, 0.1 or 0 µM competitor for 30 min; Streptavidin-HRP, absorbance at 450 nm. The conditions noted are these: both partners purified.

The target of data set [6] is T1, recombinant fusion protein …. Put plainly: ELISA; SUMO fusion protein attached to ELISA plate wells; biotinylated peptide added at several concentrations. The following applies: both partners purified.

T1 sequence (Q99836 150-296): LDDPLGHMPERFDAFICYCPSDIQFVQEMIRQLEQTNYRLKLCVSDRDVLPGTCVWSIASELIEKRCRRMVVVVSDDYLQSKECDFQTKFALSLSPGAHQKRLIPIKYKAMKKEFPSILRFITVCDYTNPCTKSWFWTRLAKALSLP

With `CC(C)C[C@@H]1NC(=O)[C@H](C(C)C)NC(=O)[C@H](CC(=O)O)NC(=O)[C@H](CCCNC(=N)N)NC(=O)CN(C(=O)[C@@H](N)Cc2c[nH]c3ccccc23)CCCCCCNC(=O)NCCCCCCN(CC(=O)NCC(=O)N[C@H](C(N)=O)[C@@H](C)O)C1=O` [c(MyD6x6)] (H-W[N(6-aminohexyl)Gly]RDVL[N(6-aminohexyl)Gly]GT-NH2; linker 2-7 via CO), the “cytotoxicity” value in the data set on THP-1 macrophages was “without causing cytotoxicity”.
Take RDVLPGT-NH2 [MyDI]: the “stability with BBMVs” value in data set [1] (up to 120 min) is on record as “rapidly degraded”. The “stability in plasma” value in data set [2] is listed as “rapidly degraded”.
Take `CC(C)C[C@@H]1NC(=O)[C@H](C(C)C)NC(=O)[C@H](CC(=O)O)NC(=O)[C@H](CCCNC(=N)N)NC(=O)CN(C(=O)[C@@H](N)Cc2c[nH]c3ccccc23)CCCCNC(=O)NCCCCN(CC(=O)NCC(=O)N[C@H](C(N)=O)[C@@H](C)O)C1=O` [c(MyD 4-4)] (H-W[Nlys]RDVL[Nlys]GT-NH2; linker 2-7 via CO): the remaining at 2 h in data set [1] (male, intestinal brush border membrane vesicles (BBMVs), 2 h, mean, read-out: peptide recovered at end of incubation with BBMVs) was ~80%. Also, the “stability in plasma” value in data set [2] is “highly stable”. Moreover, the remaining at 4 h, 10 µg/ml in data set [2] (rat, 240 minutes, mean, read-out: starting material detected after incubation in plasma) was > 90%. The “cytotoxicity” value in the data set on THP-1 macrophages was “without causing cytotoxicity”.
On to `NC(=O)[C@H]1CCS[C@@H]2C[C@]3(CCCN3C(=O)Cc3ccc(NC(=O)COc4ccc(Cl)cc4Cl)cc3)C(=O)N12` [ST2825], for which the “inhibition of hTNFα production” value in data set [3] and in data set [4] was “did not block” throughout. Moreover, in the data set with RAW264.7 NFκB-luc cells, the “cytotoxicity” value is “highly cytotoxic”.

B1: MyD88 inhibitor peptide (MyDI, RDVLPGT), unlabeled linear BB loop peptide (peptide)
peptide: RDVLPGT-NH2
notes: MyD88 BB loop heptamer; also called non-biotinylated linear peptide; MyD88 BB-loop decoy peptide; source: synthetic peptide (Fmoc chemistry on Rink amide MBHA resin, HPLC purified)
In the case of B1, the binding result in data set [5] is listed as “binds”.

B2: Biotinylated linear BB loop peptide RDVLPGT (Biotin-MyDI) (peptide)
peptide: RDVLPGT
modifications: also: biotinylated, position not given here
notes: MyD88 BB loop heptamer; also called Biotinylated RDVLPGT; source: bought: Bio Basic Inc
Consider B2, for which the binding result in data set [6] is reported as “binds”.

The values are drawn from publication PMC6013495, “Development of a Novel Backbone Cyclic Peptide Inhibitor of the Innate Immune TLR/IL1R Signaling Protein MyD88” (Scientific Reports, 2018).
